Measured values taken from paper PMC10488193, “Evaluation of the Chemical Stability, Membrane Permeability and Antiproliferative Activity of Cyclic Diarylheptanoids from European Hornbeam (Carpinus betulus L.)” (International Journal of Molecular Sciences, 2023).
Values joined by “and” are separate entries in the source; they are usually repeats but may differ in a detail not shown here. Equal entries are not always repeated. “Also recorded” adds a separate entry of the source. Where two headings read alike, the source gives them in different places. Marks after values point to notes of the source that are not given here.

Experiments:
[1] = PAMPA-GI; type: in vitro ADME; details: for Papp at 4 h, 100 µM: PAMPA, read-out: logPe PAMPA-GI (n = 9) (converted)
Experimental: A parallel artificial membrane permeability assay (PAMPA) was used to determine the effective permeability (Pe) for the Carpinus diarylheptanoids. Stock solutions of the isolated compounds (10 mM in DMSO) were diluted with the defined buffer (pH 7.4 for the PAMPA-BBB and pH 6.8 for the PAMPA-GI assays) to obtain the donor solutions (composition: 297.0 μL buffer + 3.0 μL stock solution). Donor solutions were filtered through Phenex-RC 15 mm, 0.2 μm syringe filters (Gen-Lab Ltd., Budapest, Hungary).
For the PAMPA-BBB test, 5 μL of porcine polar brain lipid extract (PBLE) solution (16.0 mg PBLE + 8.0 mg cholesterol dissolved in 600.0 μL n-dodecane) was applied for each well of the 96-well polycarbonate-based filter donor plates (top plate) (Multiscreen™-IP, MAIPN4510, pore size 0.45 μm; Merck). For the PAMPA-GI assay, the wells of the top plate were coated with 5 μL of the mixture of 8.0 mg phosphatidylcholine + 4.0 mg cholesterol dissolved in 300.0 μL n-dodecane. The 150.0 μL aliquots of the filtrated donor solutions were placed on the membrane. The 96-well PTFE acceptor plates (bottom plates) (Multiscreen Acceptor Plate, MSSACCEPTOR; Merck), were filled with 300.0 μL buffer solution (0.01 M PBS buffer, pH 7.4). […]
After the incubation, the plates were separated and the compound concentrations in the donor (CD(t)) and acceptor (CA(t)) solutions were determined using the aforementioned UHPLC-DAD method (see Section 3.4). […] The effective permeability and the membrane retention in the PAMPA-BBB and the PAMPA GI experiments were calculated by Equations (3) and (4), respectively:(3) Pe=−2.303/A(t−τSS)·VA·VD/VA+VD·lg1−VA+VD/1−MR·VD×CAt/CD0 (4) Pe=−2.303/A(t−τSS))·1/1+ra·lg−ra+1+ra/1−MR×CDt/CD0 where Pe is the effective permeability coefficient (cm/s), A is the filter area (0.24 cm^2), VD and VA are the volumes in the donor (0.15 cm^3) and acceptor phases (0.30 cm^3), t is the incubation time (s), τSS is the time (s) to reach steady state (240 s), CD(t) is the concentration (mol/cm^3) of the compound in the donor phase at time t, CD(0) is the concentration (mol/cm^3) of the compound in the donor phase at time 0, MR is the estimated membrane retention factor (the estimated mole fraction of solute lost to the membrane) and ra is the sink asymmetry ratio (gradient-pH-induced), defined as:(5) ra=VD/VA×Pe(A→D)/Pe(D→A) (6) MR=1−CDt/CD0−VA/VDCAt/CD0
All experiments were performed in three triplicates on three consecutive days (n = 9); caffeine standard was used as positive, while rutin was used as negative control. Clog P values were calculated using ACD/ChemSketch (Freeware) 2 January 2020 (Advanced Chemistry Development, Inc., Toronto, ON, Canada).

[2] = Aqueous stability at biorelevant pH values, 37 °C (UHPLC-DAD); type: physicochemical; details: for half-life at 100 µM / degradation rate constant k: first-order; for half-life at 100 µM: read-out: half-life t1/2 (converted); for aqueous stability at pH 1.2, 6.8, 7.4 (in words): 37 °C, up to 81 h
Experimental: For the analysis of the samples from the chemical stability as well as the PAMPA studies, sample concentrations were determined using our previously developed ultrahigh-performance liquid chromatography–diode array detection (UHPLC-DAD) method validated for linearity, precision and accuracy. Briefly, an ACQUITY UPLC H-Class PLUS System hyphenated with a quaternary solvent delivery pump (QSM), an auto-sampler manager (FTN), a column compartment (CM) and a photodiode array (PDA) detector (Waters Corporation) was employed. Stationary phase: Acquity BEH C18 column (100 × 2.1 mm i.d., 1.7 µm; Waters Corporation), column temperature: 30 °C. The mobile phase consisted of 0.3% acetic acid in water (eluent A) and acetonitrile (eluent B). The following gradient elution was applied at a flow rate of 0.3 mL/min: 0 min 12.0% B, 19.0 min 13.5% B, 25.5 min 75.0% B, 26.0 min 100.0% B, 28.0 min 100.0% B, 28.5 min 12.0% B.
The buffers modelling the gastric fluid (pH 1.2), the intestinal fluid (pH 6.8) and the blood and the tissues (pH 7.4) were prepared as follows. Buffer pH = 1.2: 1.0 g NaCl and 3.5 mL HCl dissolved in distilled water, final volume: 500.0 mL. Buffer pH = 6.8: 20.2 g Na2HPO4∙7H2O and 3.4 g NaH2PO4∙H2O dissolved in distilled water, final volume: 1000.0 mL, pH adjustment with 0.5 M NaOH or 0.5 M HCl. Buffer pH = 7.4: one PBS tablet dissolved in 200.0 mL distilled water. The stock solutions of compounds 1–4 were prepared with dimethyl sulfoxide (DMSO) at a concentration of 10.0 mM. The stock solutions were diluted 100-fold with each buffer separately to obtain the working solutions (297.0 μL buffer + 3.0 μL stock solution). All working solutions were filtered through Phenex-RC 15 mm, 0.2 μm syringe filters (Gen-Lab Ltd., Budapest, Hungary). The samples were incubated for 81 h at 37 °C; aliquots were taken for analysis every 9 h in accordance with the time required to quantify the analytes of interest in one set of samples. The total incubation time of 81 h was applied to obtain data for ten measurement points. The previously described UHPLC-DAD method was used to examine the changes in compound concentrations (see Section 3.4).
For the determination of pH stability, the initial AUC values were compared with the data after 9 and 81 h using paired-sample t test; significant difference was reported at p < 0.05. The effects of the pH were analysed through one-way analysis of variance (ANOVA) followed by Tukey’s post hoc HSD test (p < 0.05). All experiments were performed in triplicates (n = 3).
We used the following equations to calculate the first-order reaction rate constant (k) and the half-life (t1/2) indicating the time required to reduce the concentration of diarylheptanoids by 50% [29]:ln (ct/c0) = −k × t(1) t1/2 = −ln 0.5 × k^−1(2) where ct is the concentration of the diarylheptanoids at time t, c0 is the initial concentration, k is the reaction rate constant, t is the treatment time.

[3] = sodium phosphate buffer, pH 6.8, 37 °C

Structure (SMILES) | Papp at 4 h, 100 µM [1] [nm/s] | relative concentration compared to the initial value ([2]; 9 h, pH 1.2, 37 °C) | relative concentration compared to the initial value ([2]; 9 h, pH 6.8, 37 °C) | relative concentration compared to the initial value ([2]; 9 h, pH 7.4, 37 °C) | relative concentration compared to the initial value ([2]; 81 h, pH 1.2, 37 °C) | relative concentration compared to the initial value ([2]; 81 h, pH 6.8, 37 °C) | relative concentration compared to the initial value ([2]; 81 h, pH 7.4, 37 °C) | half-life at 100 µM ([2]; NaCl/HCl buffer, pH 1.2, 37 °C) [h] | half-life at 100 µM ([2]; PBS, pH 7.4, 37 °C) [h] | degradation rate constant k ([2]; pH 1.2, 37 °C) [h⁻¹] | degradation rate constant k ([2]; pH 6.8, 37 °C) [h⁻¹] | degradation rate constant k ([2]; pH 7.4, 37 °C) [h⁻¹] | half-life at 100 µM [2, 3] [h] | aqueous stability at pH 1.2, 6.8, 7.4 (in words) [2] | logPe PAMPA-GI (n = 9) ([1]; donor pH 6.8, acceptor pH 7.4, 37 °C, 4 h, Pe in cm/s, n.d. = not detected in the acceptor phase)
O=C1C[C@H](O)[C@@H](O)Cc2ccc(O)c(c2)-c2cc(ccc2O)C[C@H]1O [Compound 1, carpinontriol A] | 5.62 | 97.1 ± 8.9 ^a % | 97.4 ± 1.5% and 97.4 ± 1.5 ^#a % | 96.9 ± 1.2 ^a % | 70.5 ± 2.6% and 70.5 ± 2.6 ^#b % | 75.3 ± 3.0% and 75.3 ± 3.0 ^#b % | 71.5 ± 5.2% and 71.5 ± 5.2 ^#b % | 167 | 166 | 0.00415 | 0.00365 | 0.00419 | 190 | – | –
O=C1CCc2ccc(O)c(c2)-c2cc(ccc2O)C[C@H](O)[C@H](O)[C@H]1O [Compound 2, carpinontriol B] | 34.7 | 101.7 ± 4.2 ^a % | 105.2 ± 3.9 ^a % | 102.0 ± 0.9 ^a % | 100.7 ± 5.1 ^a % | 101.9 ± 6.4 ^a % | 101.5 ± 1.1 ^a % | – | – | – | – | – | – | remained intact for the whole study at all pH values; also recorded: stable at all three studied biorelevant pH values | –
O=C1CCc2ccc(O)c(c2)-c2cc(ccc2O)C[C@@H](O)[C@H](O)C1 [Compound 3, giffonin X] | 60.3 | 100.6 ± 6.9 ^a % | 98.9 ± 0.8 ^a % | 82.6 ± 7.7 ^#b % | 83.4 ± 5.3% and 83.4 ± 5.3 ^#b % | 93.2 ± 2.0% and 93.2 ± 2.0 ^#ab % | 46.7 ± 4.7 % | 298 | 81.6 | 0.00232 | 0.000838 | 0.00849 | 827 | – | –
O=C1CCC(=O)C(O)Cc2ccc(O)c(c2)-c2cc(ccc2O)C1 (stereo not shown) [Compound 4, 3,12,17-trihydroxytricyclo [12.3.1.1^2,6]nonadeca-1(18),2(19),3,5,14,16-hexaene-8,11-dione] | – | 68.5 ± 4.5% | 105.8 ± 2.6 ^a % | 102.0 ± 3.7 ^a % | 31.0 ± 7.0% | 88.9 ± 2.0% | 103.1 ± 2.2 ^a % | 54.4 | – | 0.0127 | 0.00142 | – | 488 | stable only at pH 7.4 | not detected in the acceptor phase
